Consider two molecules from publication PMC10048095, “Sol-Gel Films Doped with Enzymes and Banana Crude Extract as Sensing Materials for Spectrophotometric Determination” (Gels, 2023).

Assay [1] has as its target T1, Horseradish peroxidase (HRP) (Armoracia rusticana, UniProt P00433).
T1 construct: gene PRXC1A
T1 sequence (P00433 31-338): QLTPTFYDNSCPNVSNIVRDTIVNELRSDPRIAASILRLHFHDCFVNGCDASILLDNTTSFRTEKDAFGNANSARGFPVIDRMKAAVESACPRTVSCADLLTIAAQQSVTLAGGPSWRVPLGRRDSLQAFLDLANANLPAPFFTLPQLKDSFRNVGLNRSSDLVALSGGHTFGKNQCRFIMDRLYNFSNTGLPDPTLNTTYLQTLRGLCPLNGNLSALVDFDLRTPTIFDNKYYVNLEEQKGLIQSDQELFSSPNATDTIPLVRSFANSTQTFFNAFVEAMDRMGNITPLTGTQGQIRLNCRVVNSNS
The assay can be described thus: absorbance at […] nm, initial rates. The following applies: H2O2 as co-substrate; enzyme in solution and in sol-gel films; pH 6.0. It is filed as biochemical.

The subject of a further assay is T2, Mushroom tyrosinase (MT).
T2 construct: gene PPO3
To be noted: read-out: KM, mM / Solution; free enzyme in solution; pH 6.0 buffer; air oxygen.

In the case of `Cc1cc(-c2cc(C)c(N)c(C)c2)cc(C)c1N` [3,3′,5,5′-tetramethylbenzidine], the “absorbance at 650 nm, initial rates” value in assay [1] was “hydrogen peroxide reduction with TMB oxidation”.

As for `O=C(O)/C=C/c1ccc(O)c(O)c1` [Caffeic acid], the Km in the assay with Mushroom tyrosinase (MT) worked out at 1.1 mM.
